Measurements from patent publication US5298614A, “Size limited double stranded poly I poly(cytidylate/4-thiouridylate)” (Nippon Shinyaku Co. Ltd., priority 1986, dated 1994).
Marks after values point to notes of the source that are not given here.

Columns and labels:
[1] = 50% melting temperature (Tm) and hyperchromicity, UV absorbance at 260 nm; type: physicochemical; details: neutral condition, aqueous buffer solution containing 0.1M sodium ion
Experimental: If the stabilization of the double stranded complex formation in nucleic acid polymer is shown with reference to the 50% melting temperature (Tm value), poly I:poly C has a 59.0° C. under a neutral condition in aqueous buffer solution containing 0.1M sodium ion while the SH-substituted nucleic acid derivative containing 4-thiouridine (n=20) and the S-substituted nucleic acid derivative (n=20) have a 59.5° C. and 59.3° C., respectively.
Among the nucleic acid derivatives obtained by the above example, those with 50 to 2,000 residue numbers of molecular size distribution were taken and their fusing curves were measured.
Sample I or II (0.7 OD/ml) in 10 mM Tris buffer (pH 7.5) containing 0.1M sodium chloride was warmed, at the rising rate of 2° C./4 minutes, from 20° C. to 90° C., the ultraviolet absorbancy at each temperature was measured at the wavelength of 260 nm, and an increase of ultraviolet absorbancy by a hyperchromicity was represented by a relative ratio giving the state at 20° C. as a base. A Beckmann-DU-8B spectrophotometer was used for the measurement. Melting of the nucleic acid derivatives was gradually observed during 35° C. to 55° C. and, at around 59° C., a sudden fusion curve was obtained. […]

venom phosphodiesterase = experiment: Resistance against hydrolysis, time until hydrolysis arrives at 50%; type: in vitro ADME; details: venom phosphodiesterase enzymatic reaction
Experimental: Then the resistance against hydrolysis by RNase was compared in terms of the time ratio until the hydrolysis arrives at 50%. Thus, under conditions such as venom phosphodiesterase enzymatic reaction, poly I:poly C was 50 minutes while those of nucleic acid derivatives containing 4-thiouridine (SH group) and its S--S bond (n=20) are 60 minutes and, by contrast, those of nucleic acid derivatives (n=20) containing uridine (OH group) were as short as 20 minutes.

Pyrogen test to rabbits = type: in vivo; details: 0.2 microgram/kg i.v., 4 hours after injection
Experimental: Injection of poly I:poly C in vivo has been known to be pyrogenic. […] On the contrary, the nucleic acid derivatives of the present invention (both SH and S--S substances in the above cytotoxic experiment) show only 0.25° C. rise in body temperature on average and the result of the pyrogenic test was negative. In those experiments, three rabbits per group were used and a solution of the sample (0.2 microgram/kg) in 10 ml of physiological saline solution was intravenously injected beneath the ear of the rabbits and the body temperature at 4 hours after the injection was observed.

HeLa S3 = experiment: Proliferation inhibiting action in nude mice bearing human tumor cells; type: in vivo, human tumor cells in nude mice (BALB/c); details: test sample 100 μg/mouse i.v., 5-FU 25 mg/kg i.p., twice a week for four weeks
Experimental: (§1) Each 2.5×10^6 of cell strain HeLa S3 derived from human uterus neck and cell strain Hep-2 derived from throat cancer cells were transplanted under the skin of the nude abdomen of male nude mice 5 weeks old derived from BALB/c and, on the 7th to 10th day after the transplantation, living cohesion of tumor was confirmed. Then 100 μg/mouse of test sample (intravenously) and 25 mg/kg of 5-FU (intraperitoneally) were administered twice a week for four weeks. Tumor was extracted on the fourth week after the admininstration and the weight were measured.
(§2) The test samples used were the same as that in the above (1).

Hep-2 = experiment: as above; type: in vivo, human tumor cells in nude mice (BALB/c); details: test sample 100 μg/mouse i.v., 5-FU 25 mg/kg i.p., twice a week for four weeks
Experimental: as §1, §2

[2] = system: interleukin 1 (cohesive cells from human peripheral blood); experiment: Inducing activity of interleukin 1, 3H-thymidine in-take into PHA-stimulated mice thymus cells; type: cell-based; details: samples 100α/ml; interleukin 1 1.25 units/ml; saline control 3370
Experimental: Mononuclear particles were separated from normal human heparin-added peripheral blood by specific gravity centrifugation method using Ficoll-Hypaque (Pharmacia, Ficollpaque, trademark), the numbers were adjusted to 5×10^6 /ml in a 10% FCS-added RPMI medium, placed in a plastic dish, incubated at 37° C. for one hour, and the cohesive cells were used as an interleukin 1-producing source.
The sample to be tested was added to the 5×10^5 /ml of single particle, incubated at 37° C. for 24 hours, and the interleukin 1 activity in the supernatant liquid was determined by measuring a ^3 H-thymidine in-take method into a PHA-stimulated mice thymus cells using a proliferation ability of the thymus cells as a target. The control was physiological saline solution.

## polyinosinic acid-polycitydylic acid [poly I:poly C]
[1]
  50% melting temperature (Tm value): 59.0 °C
Venom phosphodiesterase
  time until the hydrolysis arrives at 50%: 50 min
Pyrogen test to rabbits
  body temperature rise, average: 1.45 °C

## O=c1[nH]cc(F)c(=O)[nH]1 [5-FU, 5-fluorouracil]
HeLa S3
  Inhibition Rate (%): 47%
HeLa S3; control 3.85 ± 0.23
  Weight (g) ± S.E. of tumor: 2.06 ± 0.35 g
Hep-2
  Inhibition Rate (%): 30%
Hep-2; control 0.88 ± 0.07
  Weight (g) ± S.E. of tumor: 0.56 ± 0.12 g

## Interleukin 1
[2]
  In-Take Amount: 12517 DPM (× 10^4)
